From ChEMBL document CHEMBL1949624, “Synthesis of a spin-labeled anti-estrogen as a dynamic motion probe for the estrogen receptor ligand binding domain” (Bioorg Med Chem Lett, 2012)

Tests used:
[1] = target: Estrogen receptor beta (Homo sapiens) (UniProt Q92731); experiment: Relative binding affinity to ERbeta LBD by competitive binding assay
[2] = Selectivity ratio of relative binding affinity for ERbeta receptor LBD to relative binding affinity for ERalpha receptor LBD
[3] = target: T1, Estrogen receptor (Homo sapiens) (UniProt P03372); experiment: Relative binding affinity to ERalpha LBD by competitive binding assay
T1 sequence (whole entry): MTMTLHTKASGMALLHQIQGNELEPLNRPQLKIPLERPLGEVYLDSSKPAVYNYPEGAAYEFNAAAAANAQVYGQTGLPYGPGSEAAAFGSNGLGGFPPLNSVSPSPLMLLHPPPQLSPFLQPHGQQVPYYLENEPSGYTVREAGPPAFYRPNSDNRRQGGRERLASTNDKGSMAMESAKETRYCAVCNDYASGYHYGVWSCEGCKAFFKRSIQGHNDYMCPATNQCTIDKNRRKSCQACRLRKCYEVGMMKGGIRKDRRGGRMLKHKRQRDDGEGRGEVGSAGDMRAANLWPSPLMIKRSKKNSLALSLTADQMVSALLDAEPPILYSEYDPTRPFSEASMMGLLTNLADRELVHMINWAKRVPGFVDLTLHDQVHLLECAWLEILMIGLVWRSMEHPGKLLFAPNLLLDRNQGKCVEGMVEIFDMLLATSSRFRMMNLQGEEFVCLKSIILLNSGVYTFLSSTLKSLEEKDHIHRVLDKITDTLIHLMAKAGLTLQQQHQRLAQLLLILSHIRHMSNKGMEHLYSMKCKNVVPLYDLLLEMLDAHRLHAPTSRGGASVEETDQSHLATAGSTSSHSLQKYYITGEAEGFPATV

Estrogen receptor beta (Homo sapiens), sequence (Q92731 whole entry, the tested form may be a part): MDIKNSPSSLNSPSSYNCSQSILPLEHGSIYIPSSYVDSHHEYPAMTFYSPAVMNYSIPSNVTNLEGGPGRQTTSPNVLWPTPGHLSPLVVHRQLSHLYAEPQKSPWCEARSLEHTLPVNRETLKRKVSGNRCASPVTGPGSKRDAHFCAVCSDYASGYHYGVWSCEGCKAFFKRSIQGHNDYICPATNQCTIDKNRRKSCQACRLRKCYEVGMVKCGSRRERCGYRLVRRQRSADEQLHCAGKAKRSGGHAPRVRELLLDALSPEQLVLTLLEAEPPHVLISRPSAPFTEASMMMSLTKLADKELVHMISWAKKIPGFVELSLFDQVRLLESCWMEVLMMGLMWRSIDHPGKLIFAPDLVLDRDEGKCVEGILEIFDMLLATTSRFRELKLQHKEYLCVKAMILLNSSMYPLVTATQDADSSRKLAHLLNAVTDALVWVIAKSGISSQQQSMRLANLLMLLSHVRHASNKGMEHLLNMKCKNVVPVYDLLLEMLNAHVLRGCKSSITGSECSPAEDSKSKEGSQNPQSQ

RBA [1]	Selectivity ratio [2]	RBA [3]	SMILES
33.7%	0.86		C[C@]12C[C@H](c3ccc(OCCN=[N+]=[N-])cc3)[C@@H]3c4ccc(O)cc4CC[C@H]3[C@@H]1CC[C@@H]2O
1.9%	0.43	4.5%	CC1(C)CC(NCc2cn(CCOc3ccc([C@H]4C[C@]5(C)[C@@H](O)CC[C@H]5[C@@H]5CCc6cc(O)ccc6[C@H]54)cc3)nn2)CC(C)(C)N1[O]
